Source: patent US20080234262A1 (Wyeth, priority 2007, published 2008)
Where two headings read alike, the source gives them in different places.

How the values were obtained:
Human mTOR (FLAG-TOR) = target: T1, Human mTOR (FLAG-TOR) (Homo sapiens, UniProt P42345); experiment: Human mTOR kinase assay with purified enzyme, DELFIA format; format: biochemical
T1 construct: FLAG

PI3K = PI3K (Homo sapiens, UniProt P42336); experiment: Fluorescence polarization assay for PI3K; format: biochemical; settings: PI3Kα, read-out: PI3Kα IC50;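 further: PI3K kinase reaction on PIP2 with ATP, 30-60 min, product sensed by GST-GRP with red probe in fluorescence polarization (mP), controls without enzyme and at zero time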
Sequence of PI3K (P42336 whole entry): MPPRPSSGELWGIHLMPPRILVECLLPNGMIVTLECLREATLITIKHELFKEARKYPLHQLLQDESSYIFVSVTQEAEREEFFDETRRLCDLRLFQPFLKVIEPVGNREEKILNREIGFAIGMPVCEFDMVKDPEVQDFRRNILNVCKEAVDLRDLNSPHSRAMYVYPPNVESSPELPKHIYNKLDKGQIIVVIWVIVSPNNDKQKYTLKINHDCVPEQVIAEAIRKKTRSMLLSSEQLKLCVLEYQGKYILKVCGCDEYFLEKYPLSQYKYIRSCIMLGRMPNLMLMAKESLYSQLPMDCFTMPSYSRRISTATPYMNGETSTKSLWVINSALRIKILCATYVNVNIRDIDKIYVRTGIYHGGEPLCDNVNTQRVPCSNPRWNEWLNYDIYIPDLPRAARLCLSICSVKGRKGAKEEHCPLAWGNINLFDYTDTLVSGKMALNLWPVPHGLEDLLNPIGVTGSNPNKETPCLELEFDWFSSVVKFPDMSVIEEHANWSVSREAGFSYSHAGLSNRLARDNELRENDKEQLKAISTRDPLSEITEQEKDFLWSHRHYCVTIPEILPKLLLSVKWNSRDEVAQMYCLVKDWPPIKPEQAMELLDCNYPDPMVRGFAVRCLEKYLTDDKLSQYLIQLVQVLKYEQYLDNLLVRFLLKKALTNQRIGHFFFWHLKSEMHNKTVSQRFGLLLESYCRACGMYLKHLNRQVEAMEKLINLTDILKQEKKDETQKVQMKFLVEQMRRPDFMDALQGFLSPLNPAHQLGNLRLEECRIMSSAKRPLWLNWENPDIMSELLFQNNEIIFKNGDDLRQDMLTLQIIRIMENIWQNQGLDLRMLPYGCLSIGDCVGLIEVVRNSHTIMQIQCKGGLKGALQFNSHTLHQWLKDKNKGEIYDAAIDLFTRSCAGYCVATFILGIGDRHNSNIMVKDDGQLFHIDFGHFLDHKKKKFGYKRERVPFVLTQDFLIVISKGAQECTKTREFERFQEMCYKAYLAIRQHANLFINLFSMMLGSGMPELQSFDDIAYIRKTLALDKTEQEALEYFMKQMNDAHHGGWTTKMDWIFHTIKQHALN
Sequence of PI3K (P27986 whole entry partner): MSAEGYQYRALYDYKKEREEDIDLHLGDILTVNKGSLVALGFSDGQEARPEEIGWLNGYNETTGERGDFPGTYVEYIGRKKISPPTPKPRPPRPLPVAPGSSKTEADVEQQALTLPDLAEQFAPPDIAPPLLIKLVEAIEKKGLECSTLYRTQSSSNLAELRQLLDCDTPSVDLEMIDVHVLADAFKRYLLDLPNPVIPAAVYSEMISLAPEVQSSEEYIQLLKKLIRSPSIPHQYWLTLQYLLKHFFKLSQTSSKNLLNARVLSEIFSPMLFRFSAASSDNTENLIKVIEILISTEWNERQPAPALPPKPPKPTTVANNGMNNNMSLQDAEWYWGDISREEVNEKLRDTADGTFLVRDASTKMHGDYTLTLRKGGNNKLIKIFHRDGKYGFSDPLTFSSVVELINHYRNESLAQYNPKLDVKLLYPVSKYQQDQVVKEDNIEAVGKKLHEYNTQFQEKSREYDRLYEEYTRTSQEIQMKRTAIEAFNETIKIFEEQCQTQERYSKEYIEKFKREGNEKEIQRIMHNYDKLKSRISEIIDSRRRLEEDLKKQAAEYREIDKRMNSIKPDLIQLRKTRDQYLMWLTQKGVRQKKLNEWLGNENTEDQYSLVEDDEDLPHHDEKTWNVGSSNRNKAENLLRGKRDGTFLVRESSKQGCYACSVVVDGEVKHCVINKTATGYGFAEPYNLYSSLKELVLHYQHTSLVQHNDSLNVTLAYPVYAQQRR

prostate line LNCap = experiment: In vitro cell culture growth assay (MTS), LNCap; format: cell-based, human; settings: LNCap cells, three days after drug treatment
breast line MDA468 = experiment: In vitro cell culture growth assay (MTS), MDA468; format: cell-based, human; settings: MDA468 cells, three days after drug treatment
In short: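 Cells were plated and, one day later, exposed to inhibitors for three days; viable cell density was then measured by metabolic conversion of MTS dye, read as absorbance at 490 nm. Growth is expressed as percent of vehicle-treated control cells on the same plate.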

With “1-(4-{4-(2-hydroxymorpholin-4-yl)-1-[1-(pyridin-3-ylmethyl)piperidin-4-yl]-1H-pyrazolo[3,4-d]pyrimidin-6-yl}phenyl)-3-methylurea [Example 61]” the IC50 (Human mTOR (FLAG-TOR)) was 0.3 µM and the IC50 (PI3K) was 9.13 µM.
“3-(4-Morpholin-4-yl-1-piperidin-4-yl-1H-pyrazolo[3,4-d]pyrimidin-6-yl)-phenol [Example 5]” gave an IC50 (Human mTOR (FLAG-TOR)) of 0.24 µM and an IC50 (PI3K) of 0.44 µM.
Molecule “4-{6-[4-(2,3-Dimethyl-isothioureido)-phenyl]-4-morpholin-4-yl-pyrazolo[3,4-d]pyrimidin-1-yl}-piperidine-1-carboxylic acid isopropyl ester [Example 57]” has an IC50 (Human mTOR (FLAG-TOR)) of 0.118 µM and an IC50 (PI3K) of 1.7 µM.
Work on “1-(2-Fluoro-ethyl)-3-(4-{1-[1-(4-hydroxy-butyl)-piperidin-4-yl]-4-morpholin-4-yl-1H-pyrazolo[3,4-d]pyrimidin-6-yl}-phenyl)-urea [Example 54]” yielded an IC50 (Human mTOR (FLAG-TOR)) of 0.029 µM and an IC50 (PI3K) of 1.75 µM.
“4-(6-(3-hydroxyphenyl)-1-phenyl-1H-pyrazolo[3,4-d]pyrimidin-4-yl)morpholin-3-one [Example 73]” showed an IC50 (Human mTOR (FLAG-TOR)) of 0.38 µM, an IC50 (PI3K; listed as 74) of 8.57 µM and an IC50 (PI3K) of 8.77 µM.
“3-[4-(1,4-oxazepan-4-yl)-1-phenyl-1H-pyrazolo[3,4-d ]pyrimidin-6-yl]phenol [Example 75]” was tested, and the IC50 (Human mTOR (FLAG-TOR)) was at least 20 µM and the IC50 (PI3K) was 10 µM.
“1-Ethyl-3-(4-{1-[1-(4-hydroxy-butyl)-piperidin-4-yl]-4-morpholin-4-yl-1H-pyrazolo[3,4-d]pyrimidin-6-yl}-phenyl)-urea [Example 52]” was tested, and the IC50 (Human mTOR (FLAG-TOR)) was 0.0115 µM and the IC50 (PI3K) was 1.43 µM.
In the case of “1-{4-[1-(1-Benzyl-piperidin-4-yl)-4-morpholin-4-yl-1H-pyrazolo[3,4-d]pyrimidin-6-yl]-phenyl}-3-methyl-thiourea [Example 34]”, the IC50 (Human mTOR (FLAG-TOR)) is reported as 1.2 µM and the IC50 (PI3K) is reported as 1.11 µM.
Work on “4-(4-morpholin-4-yl-1-phenyl-1H-pyrazolo[3,4-d]pyrimidin-6-yl)aniline [Example 10]” yielded an IC50 (Human mTOR (FLAG-TOR)) of 0.215 µM.
In the case of “5-[1-(1-Benzyl-piperidin-4-yl)-4-morpholin-4-yl-1H-pyrazolo[3,4-d]pyrimidin-6-yl]-1,3-dihydro-benzoimidazol-2-one [Example 35]”, the IC50 (Human mTOR (FLAG-TOR)) is reported as 0.13 µM and the IC50 (PI3K) is reported as 8.2 µM.
With `O=C(Nc1ccncc1)Nc1ccc(-c2nc(N3CCOCC3)c3cnn(C4CCN(CC(F)(F)F)CC4)c3n2)cc1` [Compound 786, 1-(4-{4-morpholin-4-yl-1-[1-(2,2,2-trifluoroethyl)piperidin-4-yl]-1H-pyrazolo[3,4-d]pyrimidin-6-yl}phenyl)-3-pyridin-4-ylurea] the IC50 (PI3K) was 0.048 µM, the IC50 (prostate line LNCap; Homo sapiens, LNCaP, 72 h) was 0.08 µM and the IC50 (breast line MDA468; Homo sapiens, 72 h) was 1.1 µM.
For `CN(C)CCCNC(=O)c1ccc(-c2nc(N3CCOCC3)c3cnn(-c4ccccc4)c3n2)cc1` [Compound 102], the IC50 (PI3K) was 0.32 µM, the IC50 (prostate line LNCap; Homo sapiens, LNCaP, 72 h) was 3.2 µM and the IC50 (breast line MDA468; Homo sapiens, 72 h) was 7.5 µM.
“1-(4-{1-[1-(methoxymethyl)piperidin-4-yl]-4-morpholin-4-yl-1H-pyrazolo[3,4-d]pyrimidin-6-yl}phenyl)-3-methylurea [Compound 796]” showed an IC50 (PI3K) of 1.56 µM, an IC50 (prostate line LNCap) of 22 µM and an IC50 (breast line MDA468) of 30.1 µM.
`CCNC(=O)Nc1ccc(-c2nc(N3CCOCC3)c3cnn(C4CCN(C(=O)c5ccccc5)CC4)c3n2)cc1` [Compound 626, 1-{4-[1-(1-benzoylpiperidin-4-yl)-4-morpholin-4-yl-1H-pyrazolo[3,4-d]pyrimidin-6-yl]phenyl}-3-ethylurea] showed an IC50 (PI3K) of 0.355 µM, an IC50 (prostate line LNCap) of under 0.027 µM and an IC50 (breast line MDA468; Homo sapiens, 72 h) of 0.038 µM.
`CNc1ccc(-c2nc(N3CCOCC3)c3cnn(-c4ccccc4)c3n2)cc1` [Compound 128] gave an IC50 (PI3K) of 0.384 µM, an IC50 (prostate line LNCap; Homo sapiens, LNCaP, 72 h) of 4.8 µM and an IC50 (breast line MDA468; Homo sapiens, 72 h) of 60 µM.
`CC(C)(C)OC(=O)N1CCC[C@H](n2ncc3c(N4CCOCC4)nc(-c4ccc5[nH]ccc5c4)nc32)C1` [Compound 169] gave an IC50 (PI3K) of 0.341 µM, an IC50 (prostate line LNCap; Homo sapiens, LNCaP, 72 h) of 2 µM and an IC50 (breast line MDA468; Homo sapiens, 72 h) of 12 µM.
